We go through 2 molecules from US20260146236A1, “HUMAN SEBACEOUS GLAND CARCINOMA CELL LINE AND US THEREOF” (SHANGHAI NINTH PEOPLE'S HOSPITAL, SHANGHAI JIAOTONG …, priority 2023, published 2026).

Test [1] deals with sebaceous gland carcinoma cell line SHNPH-SeC. As to the kind of experiment: Drug sensitivity test of SHNPH-SeC cells (CCK-8 cell viability). Format: cell-based, human. Conditions: 48 h, cell viability by CCK-8, read-out: Half-maximal effective concentration (EC50). As for the experimental part: Cells in a logarithmic growth phase were harvested and prepared into a cell suspension at a concentration of 2×10^4 cells/mL. The cell suspension was inoculated into a 96-well plate at 100 μL/well. The cell proliferation in the 96-well plate was measured by the CCK-8 method on day 0, day 1, day 2, day 3, and day 4. The CCK-8 method was performed according to instructions of a kit. Specifically, a sample was incubated with 10 μL of a CCK-8 solution for 2 h in a 37° C. and 5% CO2 incubator, and an OD value was then measured at 450 nm. As shown in the growth curve of FIG. 3A, the sebaceous gland carcinoma cell line SHNPH-SeC required a doubling time of approximately 36 h, indicating a strong proliferative capacity.
Cells in a logarithmic growth phase were collected and prepared into a cell suspension with a concentration of 2×10^4 cells/mL. […] When a cell density reached approximately 80%, MMC was added to each well at concentrations of 0 μmol/L, 0.15625 μmol/L, 0.3125 μmol/L, 0.625 μmol/L, 1.25 μmol/L, 2.5 μmol/L, 5 μmol/L, 10 μmol/L, and 20 μmol/L or 5-FU was added to each well at concentrations of 0 μmol/L, 5 μmol/L, 10 μmol/L, 20 μmol/L, 40 μmol/L, 80 μmol/L, 160 μmol/L, 320 μmol/L, and 640 μmol/L. 48 h later, a cell viability in each well was detected by the CCK-8 method, with a specific process as described in section 2.3. […]

Test [2] has as its system sebaceous gland carcinoma cell line BP50 without a TP53 mutation. Conditions: BP50 cells without a TP53 mutation, previously reported; cited from earlier work.

pEC50: −log10 of the molar value. Like-named read-outs stand apart in the source and are kept apart here.

With `CO[C@@]12[C@H](COC(N)=O)C3=C(C(=O)C(C)=C(N)C3=O)N1C[C@@H]1N[C@@H]12` [MMC, mitomycin C], the pEC50 was 5.95 in test [1] and 4.98 in test [2]. Take `O=c1[nH]cc(F)c(=O)[nH]1` [5-FU, 5-fluorouracil]: the pEC50 in test [1] (Homo sapiens) was 4.08.
